Data set [1] in a line: GI S9 stability, rat, Example Y. Format: in vitro ADME. The settings on record: pooled intestinal S9 fractions; rat intestinal S9, 1.0 mg/mL protein, 2 μM compound, pH 7.4; read-out: GIS9 Rat T½ (per Ex. Y). On the procedure:
Example Y: GI S9 Stability Data
Stock solutions of test compounds in dimethyl sulfoxide (DMSO) having a final concentration of 10 mM were prepared and used in all experiments. Sekisui XenoTech (Kansas City, KS) provided pooled intestinal S9 fractions. All other chemicals were purchased from Sigma-Aldrich (St. Louis, MO) or VWR (West Chester, PA). Internal Standard/Quench (IS/Q) used to stop reactions was 100 nM labetalol in (by volume) methanol (10%) and acetonitrile (90%).
Stability in Intestinal S9 Fractions: Duplicate aliquots of test compound or positive control substrate were added to S9 stock diluted with phosphate buffered saline (137 mM NaCl, 2.7 mM KCl, 10 mM phosphate buffer), pH 7.4, to obtain a protein concentration of 1.0 mg/mL. The metabolic reactions were initiated by the addition of the substrates to the S9 reaction mixture to a final concentration of 2 μM. At 0, 10, 20, 30, 60 and 120 min, 25 μL aliquots of the reaction mixture were transferred to plates containing 225 μl of IS/Q solution. After quenching, the plates were centrifuged at 3000×g for 30 minutes. 150 μL aliquots of each supernatant were dried down then reconstituted with 300 μL water. Aliquots (10 μL) of the prepared samples were analyzed on a Thermo Q-Exactive mass spectrometer as described below.
Liquid Chromatography—Mass Spectrometry: Quantification of test compounds and control substrate was performed by analyte/internal standard peak area ratio (PAR) values measured on a Thermo Q-Exactive mass spectrometer coupled to a Dionex UltiMate 3000 HPLC with a Leap Technologies HTC PAL autosampler. The column used for analysis was a Waters Acquity BEH C18 (1.7 μm particle size, 2.1×50 mm). Mobile phase A consisted of 0.1% (v/v) formic acid in water. Mobile phase B consisted of 0.1% (v/v) formic acid in acetonitrile. Elution of analytes was achieved by a series of linear gradients varying the proportions of A and B. The mass spectrometer was calibrated on a weekly basis and mass tolerance of 5 ppm was used.
Metabolic stabilities in S9 fractions were determined by measuring the rates of disappearance of test compound and positive control substrate.
Data (% of substrate remaining) were plotted on a semi-log scale and fitted using an exponential decline model:
Ct=C0×e^−ln2/T1/2×t • Where Ct—% of substrate remaining at time=t; C0—% of substrate remaining at time=0; t—time; T1/2—half-life. • The Half-life (T1/2) is determined by the following equation: […]
Assuming a first-order reaction, the slope (k) is extrapolated from the aforementioned plotted data.

Data set [2] has as its system Human Rhinovirus 1B (HRV1B). Nature of the data set: H1-HeLa HRV-CTG 384-well assay, HRV1B, Example X. Format: cell-based. The settings on record: Rhinovirus A, 96 h; H1-HeLa cells, HRV1B MOI 0.5, 4 days, Celltiter-Glo; read-out: EC50 H1-HeLa_HRV 1B_HRV-CTG 384-well Assay (per Ex. X). The text has this:
(§1) Example X: H1-HeLa HRV-CTG 384-Well Assay
(§2) H1-Hela cell line (ATCC, Manassas, VA, Cat #CRL-1958) was maintained in Dulbecco's […] (DMEM) (Corning, New York, NY, Cat #15-018CM) supplemented with 10% fetal bovine serum (FBS) (Hyclone, Logan, UT, Cat #SH30071-03), and 1× Penicillin-Streptomycin-L-Glutamine (Corning, New York, NY, Cat #30-009-CI). Cells were passaged 2 times per week to maintain sub-confluent densities and were used for experiments at passage 5-30. The Human Rhinovirus 1B (HRV1B) (ATCC, Manassas, VA, Cat #VR-1645), Human Rhinovirus 14 (HRV14) (ATCC, Manassas, VA, Cat #VR-284), and Human Rhinovirus 16 (HRV16) (ATCC, Manassas, VA, Cat #BR-283) was obtained through ATCC. Viral infection was monitored by determining viability of H1-HeLa cells as described below.
(§3) Test molecules are prepared in 100% DMSO in 384-well polypropylene plates (Greiner, Monroe, NC, Cat #784201) with 8 compounds per plate in grouped replicates of 4 at 10 serially diluted concentrations (1:3). The serially diluted compounds were transferred to low dead volume Echo plates (Labcyte, Sunnyvale, CA, Cat #LP-0200).
(§4) The test compounds were spotted to 384-well assay plates (Greiner, Monroe, NC, Cat #781091) at 200 nL per well using an Echo acoustic dispenser (Labcyte, Sunnyvale, CA). H1-HeLa cells were harvested and suspended in DMEM (supplemented with 2% FBS and 1× Penicillin-Streptomycin-L-Glutamine) and seeded to the pre-spotted assay plates at 5,000 cells per well in 30 μL. HRV1B, HRV14, and HRV16 was diluted in DMEM (supplemented with 2% FBS and 1× Penicillin-Streptomycin-L-Glutamine) at 97.1 million Infectious Units (IU) per mL, 151 million IU per mL and 221 million IU per mL respectively. 10 μL of virus per well was added to the assay plates containing cells and compounds, for an MOI of 0.5, 1.0, and 0.25 respectively. The assay plates were incubated for 4 days at 37° C. and 5% CO2. At the end of incubation, Celltiter-Glo (Promega, Madison, WI, Cat #G7573) was prepared. The assay plates and Celltiter-Glo reagent were equilibrated to room temperature for at least 15 minutes. 40 μL per well of Celltiter-Glo reagent was added and the plates were incubated at room temperature for 15 minutes before reading the luminescence signal on an EnVision multimode plate reader (Perkin Elmer, Waltham, MA). Rupintrivir was used as positive control and DMSO was used as negative control. Values were normalized to the positive and negative controls (as 0% and 100% replication, respectively) and data was fitted using non-linear regression analysis by Gilead's dose response tool. The EC50 value for each compound was defined as the concentration reducing viral replication by 50%.

Data set [3] deals with Human Rhinovirus 16 (HRV16). As to the kind of experiment: H1-HeLa HRV-CTG 384-well assay, HRV16, Example X. The settings on record: Rhinovirus A, 96 h; H1-HeLa cells, HRV16 MOI 0.25, 4 days, Celltiter-Glo; read-out: EC50 H1-HeLa_HRV 16_HRV-CTG 384-well Assay (per Ex. X). The data set is classed as cell-based.
From the text: as §1, §2, §3, §4
In general terms: ATP-based viability assays read luminescence as a measure of living cells.

Each structure is given as a SMILES string.

As to `N#C[C@]1(COC(=O)OCCc2ccccc2)O[C@@H](c2ccc3c(N)ncnn23)[C@H](O)[C@@H]1O` [Compound 5, ((2R,3S,4R,5S)-5-(4-aminopyrrolo[2,1-f][1,2,4]triazin-7-yl)-2-cyano-3,4-dihydroxytetrahydrofuran-2-yl)methyl phenethyl carbonate], the half-life at 2 μM in data set [1] is 4 min. The figures for the concentration for a half-maximal effect (EC50) in data set [2] and in data set [3] were 3.35 µM and 11.2 µM, respectively.
On the same counts, the results for `CC(C)CCOC(=O)OC[C@@]1(C#N)O[C@@H](c2ccc3c(N)ncnn23)[C@H](O)[C@@H]1O` [Compound 7, ((2R,3S,4R,5S)-5-(4-aminopyrrolo[2,1-f][1,2,4]triazin-7-yl)-2-cyano-3,4-dihydroxytetrahydrofuran-2-yl)methyl isopentyl carbonate] are 3 min, 2.81 µM and 9.13 µM.
Consider `CC(C)COC(=O)Nc1ncnn2c([C@@H]3O[C@](C#N)(CO)[C@@H](O)[C@H]3O)ccc12` [Compound 16, Isobutyl (7-((2S,3R,4S,5R)-5-cyano-3,4-dihydroxy-5-(hydroxymethyl)tetrahydrofuran-2-yl)pyrrolo[2,1-f][1,2,4]triazin-4-yl)carbamate], for which the half-life at 2 μM in data set [1] turned out to be 789 min. For the same molecule, the half-maximal effective concentration (EC50) in data set [2] and in data set [3] was 50 µM each time.
In the case of `N#C[C@]1(COC(=O)OC2CCC2)O[C@@H](c2ccc3c(N)ncnn23)[C@H](O)[C@@H]1O` [Compound 17, ((2R,3S,4R,5S)-5-(4-aminopyrrolo[2,1-f][1,2,4]triazin-7-yl)-2-cyano-3,4-dihydroxytetrahydrofuran-2-yl)methyl cyclobutyl carbonate], the half-life at 2 μM in data set [1] was found to be 7 min. The EC50 in data set [2] was found to be 6.08 µM; in data set [3], 15.1 µM.
The corresponding values for `CCCCCCOC(=O)OC[C@@]1(C#N)O[C@@H](c2ccc3c(N)ncnn23)[C@H](O)[C@@H]1O` [Compound 19, ((2R,3S,4R,5S)-5-(4-aminopyrrolo[2,1-f][1,2,4]triazin-7-yl)-2-cyano-3,4-dihydroxytetrahydrofuran-2-yl)methyl hexyl carbonate] are 2 min, 3.57 µM and 8.39 µM.
The corresponding values for `CCCCCOC(=O)OC[C@@]1(C#N)O[C@@H](c2ccc3c(N)ncnn23)[C@H](O)[C@@H]1O` [Compound 20, ((2R,3S,4R,5S)-5-(4-aminopyrrolo[2,1-f][1,2,4]triazin-7-yl)-2-cyano-3,4-dihydroxytetrahydrofuran-2-yl)methyl pentyl carbonate] are 3 min, 4.69 µM and 9.58 µM.
Turning to `N#C[C@]1(COC(=O)OC2CCCCC2)O[C@@H](c2ccc3c(N)ncnn23)[C@H](O)[C@@H]1O` [Compound 21, ((2R,3S,4R,5S)-5-(4-aminopyrrolo[2,1-f][1,2,4]triazin-7-yl)-2-cyano-3,4-dihydroxytetrahydrofuran-2-yl)methyl cyclohexyl carbonate], in data set [1], the half-life at 2 μM is 8 min. Besides, the EC50 was 7.87 µM in data set [2] and 26.7 µM in data set [3].
On the same counts, the results for `CCOC(=O)OC[C@@]1(C#N)O[C@@H](c2ccc3c(N)ncnn23)[C@H](O)[C@@H]1O` [Compound 22, ((2R,3S,4R,5S)-5-(4-aminopyrrolo[2,1-f][1,2,4]triazin-7-yl)-2-cyano-3,4-dihydroxytetrahydrofuran-2-yl)methyl ethyl carbonate] are 14 min, 9.8 µM and 26.3 µM.
Consider `N#C[C@]1(COC(=O)OC2CC2)O[C@@H](c2ccc3c(N)ncnn23)[C@H](O)[C@@H]1O` [Compound 23, ((2R,3S,4R,5S)-5-(4-aminopyrrolo[2,1-f][1,2,4]triazin-7-yl)-2-cyano-3,4-dihydroxytetrahydrofuran-2-yl)methyl cyclopropyl carbonate], for which, in data set [1], the half-life at 2 μM is 9 min. Besides, the 50% effective concentration (EC50) worked out at 5.32 µM in data set [2] and 9.64 µM in data set [3].
As to `CC[C@H](C)COC(=O)OC[C@@]1(C#N)O[C@@H](c2ccc3c(N)ncnn23)[C@H](O)[C@@H]1O` [Compound 28, ((2R,3S,4R,5S)-5-(4-aminopyrrolo[2,1-f][1,2,4]triazin-7-yl)-2-cyano-3,4-dihydroxytetrahydrofuran-2-yl)methyl ((S)-2-methylbutyl) carbonate], the half-life at 2 μM in data set [1] came to 4 min. The values for the EC50 in data set [2] and in data set [3] were 3.53 µM and 9.51 µM, respectively.
The corresponding values for `N#C[C@]1(COC(=O)OCc2ccccc2)O[C@@H](c2ccc3c(N)ncnn23)[C@H](O)[C@@H]1O` [Compound 29, ((2R,3S,4R,5S)-5-(4-aminopyrrolo[2,1-f][1,2,4]triazin-7-yl)-2-cyano-3,4-dihydroxytetrahydrofuran-2-yl)methyl benzyl carbonate] are 3 min, 3.26 µM and 9.86 µM.
On the same counts, the results for `N#C[C@]1(COC(=O)OCC2CCCC2)O[C@@H](c2ccc3c(N)ncnn23)[C@H](O)[C@@H]1O` [Compound 30, ((2R,3S,4R,5S)-5-(4-aminopyrrolo[2,1-f][1,2,4]triazin-7-yl)-2-cyano-3,4-dihydroxytetrahydrofuran-2-yl)methyl (cyclopentylmethyl) carbonate] are 3 min, 3.12 µM and 8.88 µM.
On the same counts, the results for `CCC(CC)COC(=O)OC[C@@]1(C#N)O[C@@H](c2ccc3c(N)ncnn23)[C@H](O)[C@@H]1O` [Compound 31, ((2R,3S,4R,5S)-5-(4-aminopyrrolo[2,1-f][1,2,4]triazin-7-yl)-2-cyano-3,4-dihydroxytetrahydrofuran-2-yl)methyl (2-ethylbutyl) carbonate] are 3 min, 3.16 µM and 9.07 µM.

Usually EC50 stands for the concentration that produces a half-maximal response.

Values taken from patent publication US20230382940A1, “ANTIVIRAL COMPOUNDS AND METHODS OF MAKING AND USING THE SAME” (Gilead Sciences, Inc., priority 2022, published 2023).
